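Results reflect a 48-hour exposure of cells in 96-well plates to compound at five concentrations. The concentration for 50% growth inhibition is given as GI50. TGI marks complete inhibition of growth.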
Assays:
Test in all cases: NCI anticancer screen, dose series, 48 h
UACC-62 melanoma = system: UACC-62 melanoma
IGROV1 ovarian = system: IGROV1 ovarian
NCI/ADR-RES ovarian = system: NCI/ADR-RES ovarian
MCF7 breast = system: MCF7 breast
MALME-3M melanoma = system: MALME-3M melanoma
SK-MEL-2 melanoma = system: SK-MEL-2 melanoma
MDA-MB-435 = system: MDA-MB-435
PC-3 prostate = system: PC-3 prostate
U251 CNS = system: U251 CNS
HT29 colon = system: HT29 colon
T-47D breast = system: T-47D breast
HS 578T breast = system: HS 578T breast
CCRF-CEM leukemia = system: CCRF-CEM leukemia
SK-MEL-5 melanoma = system: SK-MEL-5 melanoma
SF-295 CNS = system: SF-295 CNS
OVCAR-4 ovarian = system: OVCAR-4 ovarian
BT-549 breast = system: BT-549 breast
HCT-15 colon = system: HCT-15 colon
HCT-116 colon = system: HCT-116 colon
SNB-19 CNS = system: SNB-19 CNS
SK-OV-3 ovarian = system: SK-OV-3 ovarian
CAKI-1 renal = system: CAKI-1 renal
DU-145 prostate = system: DU-145 prostate
UO-31 renal = system: UO-31 renal
786-0 renal = system: 786-0 renal
OVCAR-8 ovarian = system: OVCAR-8 ovarian
HOP-62 NSCLC = system: HOP-62 NSCLC
K-562 leukemia = system: K-562 leukemia
SN12C renal = system: SN12C renal
EKVX NSCLC = system: EKVX NSCLC
LOX IMVI melanoma = system: LOX IMVI melanoma
OVCAR-3 ovarian = system: OVCAR-3 ovarian
M14 melanoma = system: M14 melanoma
NCI-H522 lung = system: NCI-H522 lung
HCC-2998 colon = system: HCC-2998 colon
HOP-92 NSCLC = system: HOP-92 NSCLC
UACC-257 melanoma = system: UACC-257 melanoma
NCI-H460 lung = system: NCI-H460 lung
SK-MEL-28 melanoma = system: SK-MEL-28 melanoma
OVCAR-5 ovarian = system: OVCAR-5 ovarian
SR leukemia = system: SR leukemia
MDA-MB-231 breast = system: MDA-MB-231 breast
RPMI-8226 leukemia = system: RPMI-8226 leukemia
A498 renal = system: A498 renal
SF-539 CNS = system: SF-539 CNS
MOLT-4 leukemia = system: MOLT-4 leukemia
ACHN renal = system: ACHN renal
A549 NSCLC = system: A549 NSCLC
RXF 393 renal = system: RXF 393 renal
TK-10 renal = system: TK-10 renal
KM12 colon = system: KM12 colon
HL-60(TB) leukemia = system: HL-60(TB) leukemia

## COc1ccc(-c2nc3cc(Cl)c(Cl)cc3n2CC(=O)N=Nc2c(O)[nH]c3ccc(Cl)cc23)cc1
UACC-62 melanoma
  GI50: 1700 nM
  TGI: 3390 nM
IGROV1 ovarian
  GI50: 1740 nM
  TGI: 3460 nM
NCI/ADR-RES ovarian
  GI50: 1840 nM
  TGI: 3790 nM
MCF7 breast
  GI50: 1830 nM
  TGI: 3620 nM
MALME-3M melanoma
  GI50: 1760 nM
  TGI: 3370 nM
SK-MEL-2 melanoma
  GI50: 1850 nM
  TGI: 3620 nM
MDA-MB-435
  GI50: 1740 nM
  TGI: 3400 nM
PC-3 prostate
  GI50: 1680 nM
  TGI: 3340 nM
U251 CNS
  GI50: 1690 nM
  TGI: 3140 nM
HT29 colon
  GI50: 1830 nM
  TGI: 3500 nM
T-47D breast
  GI50: 1710 nM
  TGI: 3560 nM
HS 578T breast
  GI50: 2120 nM
  TGI: 5530 nM
CCRF-CEM leukemia
  GI50: 3930 nM
  TGI: > 100000 nM
SK-MEL-5 melanoma
  GI50: 2000 nM
  TGI: 4040 nM
SF-295 CNS
  GI50: 1940 nM
  TGI: 3600 nM
OVCAR-4 ovarian
  GI50: 1740 nM
  TGI: 3370 nM
BT-549 breast
  GI50: 2510 nM
  TGI: 6440 nM
HCT-15 colon
  GI50: 1920 nM
  TGI: 3880 nM
HCT-116 colon
  GI50: 1830 nM
  TGI: 3350 nM
SNB-19 CNS
  GI50: 2000 nM
  TGI: 4210 nM
SK-OV-3 ovarian
  GI50: 1640 nM
  TGI: 3240 nM
CAKI-1 renal
  GI50: 1500 nM
  TGI: 2850 nM
DU-145 prostate
  GI50: 1860 nM
  TGI: 3500 nM
UO-31 renal
  GI50: 1260 nM
  TGI: 2530 nM
786-0 renal
  GI50: 1800 nM
  TGI: 3280 nM
OVCAR-8 ovarian
  GI50: 1760 nM
  TGI: 3290 nM
HOP-62 NSCLC
  GI50: 1610 nM
  TGI: 3160 nM
K-562 leukemia
  GI50: 2430 nM
  TGI: 6220 nM
SN12C renal
  GI50: 1950 nM
  TGI: 3760 nM
EKVX NSCLC
  GI50: 2120 nM
  TGI: 4940 nM
LOX IMVI melanoma
  GI50: 1780 nM
  TGI: 3330 nM
OVCAR-3 ovarian
  GI50: 1730 nM
  TGI: 3200 nM
M14 melanoma
  GI50: 1810 nM
  TGI: 3500 nM
NCI-H522 lung
  GI50: 1730 nM
  TGI: 3720 nM
HCC-2998 colon
  GI50: 1920 nM
  TGI: 3560 nM
HOP-92 NSCLC
  GI50: 1160 nM
  TGI: 2770 nM
UACC-257 melanoma
  GI50: 1640 nM
  TGI: 3290 nM
NCI-H460 lung
  GI50: 1860 nM
  TGI: 3510 nM
SK-MEL-28 melanoma
  GI50: 1780 nM
  TGI: 3250 nM
OVCAR-5 ovarian
  GI50: 1910 nM
  TGI: 3780 nM
SR leukemia
  GI50: 3030 nM
  TGI: > 100000 nM
MDA-MB-231 breast
  GI50: 1850 nM
  TGI: 3970 nM
RPMI-8226 leukemia
  GI50: 2310 nM
  TGI: 6540 nM
A498 renal
  GI50: 1910 nM
  TGI: 3550 nM
SF-539 CNS
  GI50: 1710 nM
  TGI: 3180 nM
MOLT-4 leukemia
  GI50: 4440 nM
  TGI: > 100000 nM
ACHN renal
  GI50: 1780 nM
  TGI: 3200 nM
A549 NSCLC
  GI50: 1760 nM
  TGI: 3530 nM
RXF 393 renal
  GI50: 1720 nM
  TGI: 3170 nM
TK-10 renal
  GI50: 2860 nM
  TGI: 7070 nM
KM12 colon
  GI50: 2150 nM
  TGI: 5180 nM
HL-60(TB) leukemia
  GI50: 4870 nM
  TGI: > 100000 nM

Source: PubChem BioAssay (NCI)
